Test results taken from paper PMC4749225, “Azidobupramine, an Antidepressant-Derived Bifunctional Neurotransmitter Transporter Ligand Allowing Covalent Labeling and Attachment of Fluorophores” (PLoS ONE, 2016).
Where two headings read alike, the source gives them in different places.

Key:
rSERT [1] = biological target: T1, rSERT (Rattus norvegicus, UniProt P31652); test: Radioligand binding assay (RBA), competition with [3H]-citalopram, membranes of T-REx-SERT cells; conditions: for IC50: 0.5 nM [3H]-citalopram, 34°C, 60 min; for Ki: IC50 converted to Ki according to Cheng-Prusoff
T1 construct: expressed in transfected cells; host or cells: T-REx-SERT cells (T-REx 293 based, tetracycline-inducible), gift of C.G. Tate
T1 sequence (P31652 whole entry): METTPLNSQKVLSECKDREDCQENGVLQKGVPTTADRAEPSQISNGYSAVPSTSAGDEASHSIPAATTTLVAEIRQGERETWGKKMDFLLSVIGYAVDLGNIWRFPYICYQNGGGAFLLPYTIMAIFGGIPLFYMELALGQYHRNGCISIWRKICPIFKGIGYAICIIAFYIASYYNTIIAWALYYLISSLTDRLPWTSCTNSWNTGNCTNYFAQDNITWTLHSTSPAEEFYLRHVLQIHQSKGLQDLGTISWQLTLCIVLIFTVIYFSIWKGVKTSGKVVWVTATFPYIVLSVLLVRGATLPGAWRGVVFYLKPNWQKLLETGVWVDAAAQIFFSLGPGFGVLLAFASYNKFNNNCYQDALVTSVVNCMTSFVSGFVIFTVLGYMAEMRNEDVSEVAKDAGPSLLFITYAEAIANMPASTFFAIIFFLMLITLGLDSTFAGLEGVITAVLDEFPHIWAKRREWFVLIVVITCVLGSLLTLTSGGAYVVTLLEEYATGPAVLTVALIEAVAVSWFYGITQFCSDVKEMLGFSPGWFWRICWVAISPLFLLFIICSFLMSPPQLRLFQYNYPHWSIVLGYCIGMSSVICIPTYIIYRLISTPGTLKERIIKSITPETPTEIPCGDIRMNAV
Experimental: Tetracycline induced T-REx-SERT cells were mechanically disrupted with a hypotonic Tris-buffer (50 mM Tris, pH 7.9, proteinase inhibitor) in a two step procedure: dounce-homogenisation (Potter S, B.Braun, Melsungen, Germany) followed by an ultrasound treatment (sonifier W-250, Branson, CT, USA). Homogenates were centrifuged first at 800 rcf (10’, 4°C), followed by a second centrifugation step at 100,000 rcf (60’, 4°C). The resulting pellet was re-suspended in reaction-buffer RB1 (50 mM Tris-HCl, 150 mM NaCl, 5 mM KCl, proteinase inhibitor, pH 7.9), and stored at -80°C after protein determination (Pierce® BCA Protein Assay, Thermo Scientific, IL, USA).
Drugs were diluted in DMSO as solvent. Incubation was carried out at 34°C for 60’, and terminated by rapid filtration over polyethyleneimine preincubated GF/C filters using a Brandell MWXR-97TI cell harvester (Gaithersburg, MD, USA). Filters were washed three times with 2 ml of ice cold reaction-buffer RB1 and then incubated with scintillation liquid; radioactivity was measured by beta counting (MicroBeta, PerkinElmer LAS, Boston, MA, USA).

rSERT [2] = biological target: T1, rSERT; test: PAL and CuAAC fluorescence assay of 17 on rSERT-enriched material immobilized on ANTI-FLAG M2 affinity gel, with competitors; assay type: binding; conditions: for decrease in binding signal of 17 at enriched rSERT by competitor: 17 1 μM, competitor 1 mM (1000 fold molar excess), PAL then CuAAC rhodamine fluorescence
Experimental: (§2) For all these experiments, rSERT was chosen as model target. The PAL-reaction was conducted either using rSERT-enriched protein material or living cells. In both cases, the subsequent CuAAC-reaction took place after the double-tagged rSERT-His10-FLAG was immobilized on ANTI-FLAG® M2 Affinity-gel (SigmaAldrich, MO, USA).
For the interaction analysis of azidobupramine (17) with rSERT-enriched material, 1 mg of membrane preparation was solubilized in reaction-buffer RB3 (52.6 mM Tris/HCl, 126.4 mM NaCl, 5.26 mM KCl, 1% Triton X-100, proteinase inhibitor, pH 7.9). Then rSERT was immobilized on ANTI-FLAG® M2 Affinity-gel (over night, 4°C, constant agitation), and unbound protein was removed by three washing steps with reaction-buffer RB4 (25 mM HEPES/NaOH, 126.4 mM NaCl, 5.26 mM KCl, proteinase inhibitor, pH 7.9). […] This was followed by UV-light exposure (312 nm, 2x 45”, RT) using the Dual Transilluminator from Stratagene (5x8 Watt, La Jolla, CA, USA), and copper mediated click reaction (60 μM Rhodamine-azide, 2.5 mM ascorbic acid, 250 μM CuSO4, and 500 μM bis[(tertbutyltriazoyl)methyl]-[(2-carboxymethyltriazoyl)methyl]amine (BTTAA), 60’, RT, constant agitation) [31].
Within the fluorescence based interaction studies of 17 with rSERT, the fluorescence signal was recorded with the ChemiDoc MP detection-system and analyzed using ImageLab (BioRad, CA, USA); for quantification, only those fluorescent signals were taken that correspond to Western blot verified rSERT (between 70-100 kDa). Recorded fluorescent signals were normalized to the Western-blot signal of rSERT.

rSERT [3] = biological target: T1, rSERT; test: PAL of 17 in living T-REx-SERT cells followed by CuAAC rhodamine labelling, with competitor; assay type: cell-based; conditions: 17 10 μM; UV-light 312 nm
Experimental: T-REx-SERT cells expressing rSERT-His10-FLAG were kindly provided by C.G. Tate (MRC Laboratory of Molecular Biology, Cambridge, UK) [27]; cells were cultivated in suspension (FreeStyle™ 293 Expression medium, 10% FBS, antibiotic-antimycotic, and pyruvate); for selection purpose, 5 μg/ml blasticidin and 200 μg/ml zeocin were used; expression was induced by adding 1 μg/ml tetracycline for 5 days.
as §2
This was followed by UV-light induced covalent linkage (312 nm, 2x 60”, RT). The further processing was as described above, i.e. membrane preparation, solubilization and immobilization of rSERT to ANTI-FLAG® M2 Affinity-gel, CuAAC-reaction followed by protein elution, and SDS-PAGE.
Within the fluorescence based interaction studies of 17 with rSERT, the fluorescence signal was recorded with the ChemiDoc MP detection-system and analyzed using ImageLab (BioRad, CA, USA); for quantification, only those fluorescent signals were taken that correspond to Western blot verified rSERT (between 70-100 kDa). Recorded fluorescent signals were normalized to the Western-blot signal of rSERT. […]

hNET = biological target: T2, hNET (Homo sapiens, UniProt P23975); test: Competitive MS Binding Assay (MSBA), (1R,3S)-indatraline as marker, HEK293 membrane fractions; conditions: read-out: Ki, NET
T2 construct: expressed in transfected cells
T2 sequence (P23975 whole entry): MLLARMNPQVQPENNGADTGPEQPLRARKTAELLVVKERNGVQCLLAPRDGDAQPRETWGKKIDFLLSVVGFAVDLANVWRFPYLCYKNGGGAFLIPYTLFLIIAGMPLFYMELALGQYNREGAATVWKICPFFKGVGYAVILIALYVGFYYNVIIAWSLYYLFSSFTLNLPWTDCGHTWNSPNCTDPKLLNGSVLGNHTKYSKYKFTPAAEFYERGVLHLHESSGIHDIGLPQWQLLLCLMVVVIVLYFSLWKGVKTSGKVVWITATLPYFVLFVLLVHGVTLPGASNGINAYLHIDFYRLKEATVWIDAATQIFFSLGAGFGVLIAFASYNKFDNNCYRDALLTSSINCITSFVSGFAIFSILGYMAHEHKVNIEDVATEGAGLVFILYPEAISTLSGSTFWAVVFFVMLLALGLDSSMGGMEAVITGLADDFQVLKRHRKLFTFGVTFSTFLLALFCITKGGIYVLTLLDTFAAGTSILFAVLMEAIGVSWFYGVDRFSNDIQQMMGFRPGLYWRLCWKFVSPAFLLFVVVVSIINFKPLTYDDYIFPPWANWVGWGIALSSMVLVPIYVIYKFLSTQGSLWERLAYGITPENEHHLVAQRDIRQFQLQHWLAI
Experimental: (§1) Competitive MSBAs to characterize the affinity of test compounds employing (1R,3S)-indatraline as a marker for hDAT, hNET and hSERT, respectively, were performed exactly as described by Grimm et al.. For this purpose, membrane fractions obtained from HEK293 cell lines stably expressing the corresponding target protein were incubated in presence of a fixed concentration of (1R,3S)-indatraline together with varying concentrations of test compounds in 96 well plates. After separation of the non-bound marker by vacuum filtration from the binding samples, bound (1R,3S)-indatraline remaining on the filter was eluted with acetonitrile (containing internal standard) and quantified by LC-ESI-MS/MS. Subsequently, inhibition of (1R,3S)-indatraline binding caused by test compounds could be analyzed essentially in the same way as described for radioligand binding assays.

hSERT = biological target: T3, hSERT (Homo sapiens, UniProt P31645); test: as above
T3 construct: expressed in transfected cells
T3 sequence (P31645 whole entry): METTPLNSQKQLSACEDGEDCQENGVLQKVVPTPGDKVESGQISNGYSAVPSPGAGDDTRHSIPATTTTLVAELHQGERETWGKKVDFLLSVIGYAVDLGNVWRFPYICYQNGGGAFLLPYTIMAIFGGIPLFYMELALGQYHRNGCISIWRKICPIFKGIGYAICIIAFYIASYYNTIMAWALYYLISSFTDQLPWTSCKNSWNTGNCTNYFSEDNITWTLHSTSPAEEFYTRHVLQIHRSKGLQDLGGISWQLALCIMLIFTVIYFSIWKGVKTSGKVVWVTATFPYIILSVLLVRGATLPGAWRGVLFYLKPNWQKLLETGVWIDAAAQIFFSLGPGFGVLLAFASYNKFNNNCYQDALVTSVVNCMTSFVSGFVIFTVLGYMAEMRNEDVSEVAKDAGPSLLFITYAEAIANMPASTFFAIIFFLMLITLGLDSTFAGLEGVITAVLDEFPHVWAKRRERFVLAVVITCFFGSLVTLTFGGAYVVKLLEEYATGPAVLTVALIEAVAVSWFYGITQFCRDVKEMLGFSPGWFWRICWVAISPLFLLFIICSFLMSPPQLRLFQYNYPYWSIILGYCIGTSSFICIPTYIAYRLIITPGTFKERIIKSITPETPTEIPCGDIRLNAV
Experimental: as §1

hDAT = biological target: T4, hDAT (Homo sapiens, UniProt Q01959); test: as above
T4 construct: expressed in transfected cells
T4 sequence (Q01959 whole entry): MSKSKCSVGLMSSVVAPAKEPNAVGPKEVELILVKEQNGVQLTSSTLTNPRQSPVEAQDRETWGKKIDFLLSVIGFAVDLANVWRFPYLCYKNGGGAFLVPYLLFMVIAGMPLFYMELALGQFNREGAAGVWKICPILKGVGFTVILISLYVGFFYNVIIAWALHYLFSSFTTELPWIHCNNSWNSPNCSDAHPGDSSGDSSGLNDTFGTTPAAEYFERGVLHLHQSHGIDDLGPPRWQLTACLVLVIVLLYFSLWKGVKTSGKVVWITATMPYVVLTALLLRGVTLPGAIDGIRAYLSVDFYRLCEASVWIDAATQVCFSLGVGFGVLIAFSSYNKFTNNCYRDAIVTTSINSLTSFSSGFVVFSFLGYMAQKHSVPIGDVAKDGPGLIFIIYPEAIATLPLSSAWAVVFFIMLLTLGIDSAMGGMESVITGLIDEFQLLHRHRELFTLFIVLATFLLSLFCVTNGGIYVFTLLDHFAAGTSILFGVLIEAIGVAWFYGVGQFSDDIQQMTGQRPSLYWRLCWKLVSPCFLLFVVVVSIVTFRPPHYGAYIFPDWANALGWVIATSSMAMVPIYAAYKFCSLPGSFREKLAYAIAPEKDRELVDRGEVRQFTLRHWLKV
Experimental: as §1

## CN(CCCN1c2ccccc2CCc2ccccc21)CC(=O)c1ccc(Cl)cc1 [compound 5, lofepramine, reference compound]
rSERT [1]
  IC50: 1550 nM
  Ki: 1120 nM

## CN(C)CCCN1c2ccccc2CCc2ccc(N=[N+]=[N-])cc21 [compound 11, 3-(3-azido-10,11-dihydro-5H-dibenzo[b,f]azepin-5-yl)-N,N-dimethyl propan-1-amine]
rSERT [1]
  IC50: 12 nM
  Ki: 8.82 nM

## C#CCCN(C)CCCN1c2ccccc2CCc2ccc(N=[N+]=[N-])cc21 [compound 17, N-(3-(3-azido-10,11-dihydro-5H-dibenzo[b,f]azepin-5-yl)propyl)-N-methylbut-3-yn-1-amine]
rSERT [2]; rSERT-enriched material, UV-light 312 nm
  covalent labelling of rSERT by PAL and visualization by CuAAC: interacts predominantly with rSERT
rSERT [3]
  covalent labelling of rSERT in living cells: forms covalent bonds with rSERT after UV-light exposure in living cells
hNET
  Ki: 115 nM
hSERT; Ki 103 nM (MSBA, human) vs 22.2 nM (RBA, rat)
  drop in affinity to SERT, MSBA versus RBA: 4.6 fold
hSERT; MSBA, read-out: Ki, SERT
  Ki: 103 nM
hDAT; read-out: Ki, DAT
  Ki: 1640 nM
hDAT; three independent experiments, each in triplicates, read-out: pKi ±SEM, DAT (converted)
  Ki: 1580 nM
rSERT [1]
  IC50: 30.2 nM
  Ki: 22.2 nM

## CN1CCN2c3ncccc3Cc3ccccc3C2C1 (centres unmarked) [mirtazapine]
rSERT [2]
  decrease in binding signal of 17 at enriched rSERT by competitor: does not
rSERT [2]; listed as MRT
  decrease in binding signal of 17 at enriched rSERT by competitor: no effect

## CNCCCN1c2ccccc2CCc2ccc(N=[N+]=[N-])cc21 [compound 15, 3-(3-azido-10,11-dihydro-5H-dibenzo[b,f]azepin-5-yl)-N-methylpro-pan-1-amine]
rSERT [1]
  IC50: 85.1 nM
  Ki: 62.4 nM
